“Also recorded” adds a separate entry of the source. *1 amine or outer side, *2 acyl side, *3 side chain or, on linkers, in order; H or OH if unused. Where a SMILES comes first, the peptide text is derived from it. Side-chain parts run from the residue outwards. The star is where a group is joined. γGlu = O=C(O)[C@H](CCC(=O)[*:2])N[*:1]; Palmitoyl = CCCCCCCCCCCCCCCC(=O)*
Legend:
Hep3B = Hep3B CDX mouse model; assay type: in vivo
Protocol: Animal experiments were conducted in accordance with ethical guidelines, and all protocols were approved by the Institutional Animal Care and Use Committee under Hanyang University (approval numbers, 2014‐0016A, 2018‐0049A, 2018‐0207A, and 2019‐0169A), Chung‐Ang University (approval number, 2015‐00022), Chungbuk University (approval number, CBNUA‐1072‐17‐02), and Konkuk University (approval number, KU17130). To establish xenograft mice models, Hep3B, A431, U343, and PC9 cells were subcutaneously injected into the flank of Balb/c nude mice. For the MDA‐MB‐231 (LM1) cell line, it was implanted into the mammary fat pad of immunodeficient mice (NPG mice). Once tumors were successfully established, the animals were randomly divided into a control (vehicle) group and an experimental (drug) group. When the tumor volume reached 100 cubic millimeters, either saline or an appropriate concentration of drugs was administrated into mice via tail vein every 3 or 5 days for appropriate duration. Tumor volume was calculated using the formula of length × width^2)/2. To generate an orthotopic liver cancer mice model, 75 mg kg^−1 (mpk) of DEN was intraperitoneally injected weekly for 3 weeks into C57BL/6 mice, followed by 100 mpk of DEN weekly for the subsequent 3 weeks. After 37 weeks of liver cancer induction, mice received either saline or an appropriate concentration of drugs via the tail vein every 5 days for the designated duration. The in vivo administration amount was determined based on the concentration of ACP52C confirmed at the cellular level, which was 2 µM. Assuming an average mouse weight of 30 grams and considering that ≈5.8% of body weight constitutes blood volume,^[ [49] ^] it was calculated that the blood concentration of ACP52C should be ten times the GI50 concentration in cell culture conditions. […] For ACP52C derivatives, the amount was adjusted to ensure a similar molar quantity of peptide injection, taking their molecular weights into account. For instance, in the case of ACP52CGK, ≈1.67 times the quantity was used compared to ACP52C to achieve an equivalent molar quantity. At the time of sacrifice, major organs and tumors were removed and weighed, and blood was extracted. For histological analysis, major organs and tumors of mice were immediately fixed in 10% formalin neutral buffer solution, dehydrated through a graded series of ethanol treatments, treated with xylene, paraffin embedded, and cut into 4 µm sections. Hematoxylin and eosin (H&E)‐stained tissue sections were analyzed and photographed, and the representative histological images were recorded. Liver nodules in the DEN orthotopic liver cancer model were estimated by measuring the ratio of tumor areas over entire liver tissues in the tissue section using an Image J (version 1.51) software at 40× magnification. Complete blood count (CBC) analysis was conducted using a Hematology analyzer (scil Vet ABC) from the extracted blood.

[1] = tested on: MDA‐MB‐231 LM1 breast cancer; experiment: MDA‐MB‐231 LM1 CDX mouse model; assay type: in vivo
Protocol: Animal experiments were conducted in accordance with ethical guidelines, and all protocols were approved by the Institutional Animal Care and Use Committee under Hanyang University (approval numbers, 2014‐0016A, 2018‐0049A, 2018‐0207A, and 2019‐0169A), Chung‐Ang University (approval number, 2015‐00022), Chungbuk University (approval number, CBNUA‐1072‐17‐02), and Konkuk University (approval number, KU17130). To establish xenograft mice models, Hep3B, A431, U343, and PC9 cells were subcutaneously injected into the flank of Balb/c nude mice. For the MDA‐MB‐231 (LM1) cell line, it was implanted into the mammary fat pad of immunodeficient mice (NPG mice). […] Tumor volume was calculated using the formula of length × width^2)/2. […] The in vivo administration amount was determined based on the concentration of ACP52C confirmed at the cellular level, which was 2 µM. […] For ACP52C derivatives, the amount was adjusted to ensure a similar molar quantity of peptide injection, taking their molecular weights into account. For instance, in the case of ACP52CGK, ≈1.67 times the quantity was used compared to ACP52C to achieve an equivalent molar quantity. […] Hematoxylin and eosin (H&E)‐stained tissue sections were analyzed and photographed, and the representative histological images were recorded. […]

[2] = Storage stability of peptide activity; assay type: physicochemical; settings: stored in powder or solution form in a deep freezer
[3] = tested on: murine erythroleukemia (MEL) cells; experiment: Erythroid differentiation of MEL cells; assay type: cell-based; settings: HMBA‐induced MEL cells, supplementation to the culture
Protocol: Information of the cell lines is listed in Table S1 (Supporting Information), including their origin and culture conditions. All cell lines were cultured at 37 °C, 5% CO2 incubator. MDA‐MB‐231 (LM1), HepG2, Hep3B, and HCT116 cell lines were authenticated with short tandem repeat markers based on ATCC information. All cell lines tested negative for mycoplasma contamination. Transient downregulation of the gene of interest was conducted by siRNA transfection using Lipofectamine 2000 (Thermo Fisher, 11668019) according to the manufacturer's instructions. Information about siRNAs is provided in Table S2 (Supporting Information). Stable cell lines were established by transfecting cells using Effectene reagent (Qiagen, 301425), followed by selection of cell clones in the presence of 1 µg mL^−1 puromycin (Sigma–Aldrich, P8833). The establishment of cell lines was confirmed by WB or RT‐qPCR. For doxycycline‐inducible gene expression regulation, cell lines were incubated in the presence of 1 µg mL^−1 doxycycline (Sigma–Aldrich, D9891) for 2–3 days. To promote sphere formation of the cell lines, each well of the tissue culture dish was coated with 10% poly 2‐hydroxyethyl methacrylate (polyHEMA). An appropriate number of cells per well were seeded in serum‐free DMEM/F12 (HyClone, SH30023.01) supplemented with B27, 20 ng mL^−1 bFGF, and 20 ng mL^−1 EGF. For erythroid terminal differentiation experiments, differentiation was assessed by hemoglobin staining using a 0.2% (w/v) tetramethylbenzidine solution (Sigma–Aldrich, T0440) in 0.6% hydrogen peroxide, 3% acetic acid for 10 min in dark condition. Benzidine‐positive or negative cell numbers were counted under the inverted microscope BX50 (Olympus) at 200 × magnification. […] After each synchronization, cells were fixed at 4‐h intervals for 24 h with ACP52C treatment, and the cell cycle was analyzed by Propidium Iodide (PI) staining or intracellular protein was analyzed by immunofluorescence. […] This development period was repeated four times for one round, after which GI50 concentrations were re‐assessed in each resistant cell line. […]

[4] = administered at five‐day intervals
[5] = intravenous injection at three‐day intervals, Sorafenib orally once daily as positive control

| Structure (SMILES) | anti‐tumor activity (Hep3B; [4]) | anti‐tumor activity (Hep3B; [5]) | anti‐tumor efficacy ([1]; administered at five‐day intervals, NPG mice) | loss of activity on storage [2] | inhibition of erythroid differentiation [3] | tumor weight ([1]; intravenous injection every 2 or 3 days from day 14) |
| --- | --- | --- | --- | --- | --- | --- |
| CCCCCCCCCCCCCCCC(=O)N[C@@H](CCC(=O)NCCCC[C@H](NC(=O)CNC(=O)CNC(=O)[C@@H]1CCCN1C(=O)[C@H](CCCNC(=N)N)NC(=O)[C@H](CCC(N)=O)NC(=O)[C@@H]1CCCN1C(=O)[C@H](Cc1ccc(O)cc1)NC(=O)[C@H](CC(N)=O)NC(C)=O)C(=O)NCC(=O)NCC(=O)N[C@@H](CS)C(=O)N[C@@H](CCCNC(=N)N)C(=O)NCC(=O)N[C@@H](CC(=O)O)C(=O)N[C@@H](CCCCN)C(=O)NCC(=O)N1CCC[C@H]1C(=O)N[C@@H](CC(=O)O)C(=O)N[C@@H](CS)C(N)=O)C(=O)O [ACP52CGK] (Ac-NYPQRPGGK([γGlu-Palmitoyl])GGCRGDKGPDC-NH2) | maintained its activity; also recorded: remarkable anti‐tumor efficacy | activity similar to that of ACP52C | remarkable anti‐tumor efficacy | gradually lose their activity over one year | – | – |
| CC(=O)N[C@@H](CC(N)=O)C(=O)N[C@@H](Cc1ccc(O)cc1)C(=O)N1CCC[C@H]1C(=O)N[C@@H](CCC(N)=O)C(=O)N[C@@H](CCCNC(=N)N)C(=O)N1CCC[C@H]1C(=O)N[C@@H](CS)C(=O)N[C@@H](CCCNC(=N)N)C(=O)NCC(=O)N[C@@H](CC(=O)O)C(=O)N[C@@H](CCCCN)C(=O)NCC(=O)N1CCC[C@H]1C(=O)N[C@@H](CC(=O)O)C(=O)N[C@@H](CS)C(N)=O [ACP52C] (Ac-NYPQRPCRGDKGPDC-NH2) | reduced anti‐tumor activity compared to the three‐day interval administration | superior anti‐tumor activity compared to Sorafenib | – | gradually lose their activity over one year | inhibition of erythroid differentiation | significantly reduced tumor weight |
| CCOc1ccccc1C1CC(=O)Nc2cc3c(cc21)OCO3 (stereo not shown) [FQI1, Factor Quinolinone Inhibitor 1, reference compound] | – | – | – | – | limited inhibitory effects on MEL cell differentiation in vitro | – |

— publication PMC10667816, “A Cell‐Penetrant Peptide Disrupting the Transcription Factor CP2c Complexes Induces Cancer‐Specific Synthetic Lethality” (Advanced Science, 2023)
